This is an account of results in patent US20250213594A1 (priority 2023, published 2025).

Broadly, the half-life is the time needed for the level to fall by half in the phase considered.

One data set relates to DHT. Put plainly: Phase 1 clinical study: plasma DHT as pharmacodynamic marker. It is filed as in vivo, human.
The nature of a further data set: clinical. As to conditions: male, human, in vivo, po.
On the set-up of data set [1]: species or system human. The following applies: model estimate.
Method: PK and PD modeling were performed to determine the therapeutic dose in AGA. A two-compartment PK model using observed clinical study data was adopted. […] The effective dose for additional clinical studies was estimated using established PK/PD models. All PK/PD modeling and simulations were performed using Phoenix WinNonlin, v.8.3.
For data set [2] the following is noted: male, human, in vivo, po, 1 mg.
Method: A total of 40 non-smoking, healthy adult males were recruited for this study. Subjects who passed the screening process and were deemed eligible for the study were assigned to three groups. […] Each subject was followed up until day 43. In contrast, cohort 2 was divided into two groups. […] The subjects returned to the hospital according to a pre-determined schedule for 43 or 35 days and were assessed for tolerability, PK, and PD. […] In this study, the plasma drug concentration was analyzed on day 28 to investigate the comparative effect.
Whole blood was collected and centrifuged to obtain plasma. […] Maximum plasma concentration (Cmax), time to reach Cmax (Tmax), areas under the curve for 24 and 672 hours after dosing (AUC0-24, and AUC0-672), areas under the curve from time 0 to the last quantified concentration and to infinity (AUC0-t, and AUC0-inf), total plasma clearance, apparent total volume of distribution based on steady state or terminal phase, and elimination half-life were assessed.
PK analysis was based on a non-compartmental analysis approach and was performed in the PK population (patients who received at least one dose and had evaluable PK data). PK parameters were calculated using plasma concentrations and actual blood sampling times using Phoenix WinNonlin v. 8.3 (Certara, Princeton, NJ, USA) and summarized.
The format of data set [3] is in vivo, human. As to conditions: 1 mg QD oral 28 days, n = 10. The method, then: The study in the present disclosure was conducted in accordance with Therapeutic Goods Administration and Human Research Ethics Committee guidelines. The study was conducted at the Phase 1 Unit of Nucleus Network Pty Ltd in Brisbane, Australia from October 2021 to March 2022. The entire study was conducted in accordance with the provisions of the Declaration of Helsinki and Good Clinical Practice guidelines, and the protocol was registered at www.clinicaltrials.gov (NCT04945226; registration date: Jun. 30, 2021). Healthy men aged 18 to 55 years with a body mass index (BMI) of 18 to 32 kg/m^2 participated in this study. Potential subjects completed a signed informed consent form and were subjected to screening prior to the study. A total of 40 healthy, non-smoking adult men were included in the study across three cohorts (FIG. 1).
Each subject was followed up until day 43. In contrast, cohort 2 was divided into two groups.
Cohort 2 was divided into two groups. […]
The clinical status and vital signs of the subjects were evaluated before and after participation in the study to investigate adverse effects. Hematological parameters such as white blood cell, red blood cell, hemoglobin, hematocrit, and platelet counts were analyzed. Adverse effects (AEs) were recorded in terms of symptoms and signs, duration, intensity, relationship to study drug, action taken, outcome, and seriousness. […]

The conditions of data set [4]: 1 mg finasteride tablets, previous clinical studies; cited from earlier work.

With `CC(C)(C)NC(=O)[C@H]1CC[C@H]2[C@@H]3CC[C@H]4NC(=O)C=C[C@]4(C)[C@H]3CC[C@]12C` [Finasteride], the “baseline-corrected median DHT values (%) at all time points” value in the data set on DHT (1 mg oral QD 28 days) is −74.04 to 3.58%. Moreover, the “effect on DHT” value in the data set with DHT (all concentrations of IVL3001, oral 1 mg tablets) is “inhibitory effect”. Besides, the half-life is 6.4 h in the data set “clinical” (1 mg, mean elimination half-life (t1/2el)) and roughly 6.4 h in the data set “clinical” (in vivo mean half-life). In data set [1], the “tvCL2 (clearance between central compartment and peripheral compartment)” value is on record as 18.9 L/h. For the same compound, in data set [1], the “tvCL (clearance from central compartment)” value was 18.4 L/h. For the same compound, the “mean elimination half-life (t1/2el)” value in data set [2] was 6.9 h. For the same compound, in data set [3], the COVID-19 was 0 n (%). The bioavailability entry in data set [4] is “about 65%”.
